Measurements taken from paper PMC12196251, “Synthesis of New DltA Inhibitors and Their Application as Adjuvant Antibiotics to Re-Sensitize Methicillin-Resistant Staphylococcus aureus” (Molecules, 2025).
Values joined by “and” are separate entries in the source; they are usually repeats but may differ in a detail not shown here. Equal values may be shown once. Where a name gives a salt, the structure may show the parent alone. Read-outs that look alike come from different tables or passages of the source.

Columns and labels:
[1] = target: T1, recombinant DltA from E. faecalis (Enterococcus faecalis, UniProt Q830N0); experiment: DltA enzyme inhibition, PPi release coupled-enzyme assay; type: biochemical
T1 construct: made in house; host or cells: E. coli
T1 sequence (Q830N0 1-506): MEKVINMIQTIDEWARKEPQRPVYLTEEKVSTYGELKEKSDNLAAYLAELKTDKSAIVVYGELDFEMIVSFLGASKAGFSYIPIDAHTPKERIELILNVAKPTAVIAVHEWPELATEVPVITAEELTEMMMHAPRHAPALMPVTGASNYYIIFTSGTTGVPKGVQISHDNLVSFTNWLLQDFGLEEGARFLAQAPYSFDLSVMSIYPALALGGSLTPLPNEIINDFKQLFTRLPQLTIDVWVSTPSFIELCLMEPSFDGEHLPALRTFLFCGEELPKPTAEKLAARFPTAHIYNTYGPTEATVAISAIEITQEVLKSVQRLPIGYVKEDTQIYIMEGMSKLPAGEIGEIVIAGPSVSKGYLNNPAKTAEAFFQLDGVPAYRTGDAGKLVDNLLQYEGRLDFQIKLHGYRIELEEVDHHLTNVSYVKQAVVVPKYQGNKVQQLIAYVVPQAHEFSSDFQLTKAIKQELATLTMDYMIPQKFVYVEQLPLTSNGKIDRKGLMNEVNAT
Description: (§1) All new compounds were then evaluated in vitro for enzyme inhibition against recombinant DltA from E. faecalis or S. epidermis. Half-maximal inhibitory concentrations (IC50) were then determined by measuring the amount of PPi released at different inhibitor concentrations (Table 2). […] We noticed the DltA enzyme tolerated the presence of various modifications on the 2′-position, but the activity was inversely related to the size of the introduced group. […] Despite a good predicted binding affinity (−8.7 Kcal/mol), we hypothesize that the lower activity could be explained by the fact that the squaramide nitrogen atom might not be under its anionic form, as is the case with sulfamate 1.
(§2) The DltA-catalyzed ATP-hydrolysis reaction was monitored in vitro via PPi release (DltA +D-alanine +ATP → DltA-DAla-AMP +PPi) using a coupled-enzyme assay. The purified DltA was pretreated with DltC purified from E. coli to clear D-Ala-AMP already present in the enzyme preparation after expression in E. coli. Holo-DltC is the natural protein partner of DltA, and DltC purified from E. coli BL21 (DE3) contained 51% of this active form of DltC as determined by HPLC analysis. DltA was pretreated with DltC (ratio 1:1.2), incubated for 30 min at 37 °C and 30 min at 4 °C. Three successive washes were realized on Amicon Ultra-2 Centrifugal Filter Unit—Ultracel 30 membrane 30 kDa MWCO (Merck, Darmstadt, Germany) with elution buffer EB at 4 °C. The components of the coupled enzyme assay included 1.5 μM pre-treated DltA, 20 μM of ATP, and 14 μM of D-alanine. The half-maximal inhibitory concentration (IC50) of potential DltA inhibitors was determined by the addition of different concentrations of the synthesized molecules. PPi release was determined using the PiPer—Pyrophosphate assay kit (Invitrogen, Waltham, MA, USA) according to the recommendation of the supplier. Reactions were carried out in 96-well Chimney Style, non-binding Microplates with μClear Film Bottom (Greiner Bio-one, Frickenhausen, Germany). Plates were incubated at 37 °C for 5 h and read in a FlexStation 3 Multi-Mode plate reader (Molecular Devices, Silicon Valley, CA, USA), with λ excitation of 530 nm and λ emission of 590 nm. Experiments were conducted in sextuplicate, and the IC50 was determined by linear regression of the curve.

MRSA clinical isolates = experiment: MIC of imipenem against MRSA in absence or presence of DltA inhibitor; type: cell-based, S. aureus; conditions: for MIC: Staphylococcus aureus, MRSA
Description: (§3) All these compounds were also tested […] against MRSA clinical isolates. […] The minimum inhibitory concentrations (MICs) of imipenem (IPM) were next determined in the absence or presence of 1 mM of the different DltA inhibitors to evaluate their potential to re-sensitize MRSA to this β-lactam (Table 2). […] To clarify this hypothesis, quantification of D-alanyl ester of the MRSA cell wall was performed as previously described in the presence of inhibitors (Table 2). […] These new series represent a promising structure entry not reported yet for the inhibition of DltA and the re-sensitization of bacteria toward known antibiotics.
Colonies from BHI agar plates were suspended in saline solution (0.9% NaCl) and adjusted to an OD600 of 0.5. For growth kinetics determination, 96-well microplates (Starlab, Orsay, France) containing 200 μL of fresh BHI medium were inoculated with bacterial suspensions to an OD600 of 0.02 with a wide range of DltA inhibitors (from 0 to 2 mM). Plates were incubated at 37 °C with shaking (orbital amplitude of 3 mm) in a microplate reader (InfiniteM Nano, Tecan, Seoul, Republic of Korean). OD600nm was measured every 10 min for 24 h. Determination of MIC/MBC of antibiotics and bacterial survival assays were performed as previously described using BHI medium. The DltA inhibitor was diluted in pure water and added to the growth medium to a final concentration of 0, 0.1, 0.25, 0.5, 0.75, or 1 mM.

[2] = test system: D-alanyl ester of the MRSA cell wall; experiment: Quantification of D-alanyl ester in the bacterial cell wall; type: cell-based, S. aureus; conditions: inhibitor at 1 mM, value (spread)
Description: as §3
Ester-linked D-alanines were quantified as described previously, with the following modifications. Cultures were grown in 5 mL of BHI supplemented with DltA inhibitor to a final concentration of 0.05, 0.1, 0.25, 0.5, 0.75, or 1 mM for 16 h at 37 °C under shaking (120 rpm). Briefly, the quantification is based on the oxidation of a chromogen by H2O2 generated when free D-alanines are oxidized by a D-amino acid oxidase. Three independent experiments with duplicate samples were performed.

[3] = target: T2, recombinant DltA from S. epidermidis (Staphylococcus epidermidis, UniProt Q5HQN0); experiment: DltA enzyme inhibition, PPi release coupled-enzyme assay; type: biochemical
T2 construct: made in house; host or cells: E. coli
T2 sequence (Q5HQN0 1-485): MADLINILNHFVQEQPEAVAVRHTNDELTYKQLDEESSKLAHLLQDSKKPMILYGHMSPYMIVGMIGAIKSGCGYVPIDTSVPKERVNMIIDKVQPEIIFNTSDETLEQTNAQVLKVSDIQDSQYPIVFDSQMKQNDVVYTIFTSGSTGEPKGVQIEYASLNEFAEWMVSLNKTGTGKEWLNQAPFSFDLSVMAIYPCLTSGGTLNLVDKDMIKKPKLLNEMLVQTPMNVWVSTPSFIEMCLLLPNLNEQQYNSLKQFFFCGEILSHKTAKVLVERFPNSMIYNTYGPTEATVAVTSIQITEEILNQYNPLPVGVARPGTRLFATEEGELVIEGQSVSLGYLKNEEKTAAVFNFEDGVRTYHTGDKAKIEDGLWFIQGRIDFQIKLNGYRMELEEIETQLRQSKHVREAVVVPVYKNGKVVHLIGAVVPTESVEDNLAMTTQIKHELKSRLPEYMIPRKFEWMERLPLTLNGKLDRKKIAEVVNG
Description: as §1, §2

[4] = S. aureus (MRSA), in presence of 1 mM of the DltA inhibitor, read-out: MIC of IPM
[5] = S. aureus (MRSA), in presence of 1 mM of the DltA inhibitor

Row | SMILES | IC50 [1] [µM] | MIC (MRSA clinical isolates; [4]) [µg/mL] | Reduction in D-Ala Ester Residues [2] | IC50 [3] [µM] | MIC of IPM (MRSA clinical isolates; [5]) [µg/mL] | MIC (MRSA clinical isolates; read-out: MIC of IPM, S. aureus (MRSA), in presence of 1 mM of the DltA inhibitor) [µg/mL] | IC50 ([3]; Dlt from S. epidermidis, PPi release, value (spread)) | MIC (MRSA clinical isolates; tested MRSA strain, no inhibitor, read-out: MIC of IPM in the absence of an inhibitor) [µg/mL]
1 | C[C@@H](N)C(=O)NS(=O)(=O)OC[C@H]1O[C@@H](n2cnc3c(N)ncnc32)[C@H](F)[C@@H]1O [Compound 8, ((2R,3R,4R,5R)-5-(6-amino-9H-purin-9-yl)-4-fluoro-3-hydroxytetrahydrofuran-2-yl)methyl (D-alanyl)sulfamate salt] | 2.6 | 16 | 0% |  |  |  |  | 
2 | C[C@@H](N)C(=O)NS(=O)(=O)OC[C@H]1O[C@@H](n2cnc3c(N)ncnc32)[C@@H](N=[N+]=[N-])[C@@H]1O [Compound 9, ((2R,3S,4S,5R)-5-(6-amino-9H-purin-9-yl)-4-azido-3-hydroxytetrahydrofuran-2-yl)methyl (D-alanyl)sulfamate salt] | 3.8 | 8 | 74.9% and 74.9 (9.4) % |  |  |  |  | 
3 | C[C@@H](N)C(=O)NS(=O)(=O)OC[C@H]1O[C@@H](n2cnc3c(N)ncnc32)[C@H](n2cc(CO[C@@H]3O[C@H](CO)[C@@H](O)[C@H](O)[C@H]3O)nn2)[C@@H]1O [Compound 11, ((2R,3S,4R,5R)-5-(6-amino-9H-purin-9-yl)-3-hydroxy-4-(4-((((2R,3R,4S,5S,6R)-3,4,5-trihydroxy-6-(hydroxymethyl)tetrahydro-2H-pyran-2-yl)oxy)methyl)-1H-1,2,3-triazol-1-yl)tetrahydrofuran-2-yl)methyl (D-alanyl)sulfamate salt] |  | 16 to 64 | 0% | 39.5 | 32 |  |  | 
4 | CC(C)OP(=O)(OC(C)C)C(F)(F)/C=C/CO[C@@H]1[C@H](O)[C@@H](COS(=O)(=O)NC(=O)[C@@H](C)N)O[C@H]1n1cnc2c(N)ncnc21 [Compound 18, ((2R,3R,4R,5R)-5-(6-amino-9H-purin-9-yl)-4-(((E)-4-(diisopropoxyphosphoryl)-4,4-difluorobut-2-en-1-yl)oxy)-3-hydroxytetrahydrofuran-2-yl)methyl (D-alanyl)sulfamate salt] |  |  | 51.5% and 51.5 (14.2) % | 7.6 |  | 0.25 |  | 
5 | C[C@@H](N)C(=O)Nc1c(NC[C@H]2O[C@@H](n3cnc4c(N)ncnc43)[C@H](O)[C@@H]2O)c(=O)c1=O [Compound 23, 5′-N-(N-D-alanyl]-(3-amino-cyclobut-3-ene-1,2-dione))aminodeoxy adenosine salt] | 28.4 |  | 11.5 (1.3) % |  |  |  |  | 
6 | C[C@@H](N)C(=O)NS(=O)(=O)NC/C(CF)=C(\F)Cn1cnc2c(N)ncnc21 [Compound 38, (R,E)-2-amino-N-(N-(4-(6-amino-9H-purin-9-yl)-3-fluoro-2-(fluoromethyl)but-2-en-1-yl)sulfamoyl)propenamide salt] |  | 16 to 64 | 2% | > 100 | 32 |  | complete loss of the activity | 
7 | CCCCCCC(=O)N[C@H](C)C(=O)c1cn(C[C@H]2O[C@@H](n3cnc4c(N)ncnc43)[C@H](O)[C@@H]2O)nn1 [Compound 51, N-((R)-1-(1-(((2R,3S,4R,5R)-5-(6-amino-9H-purin-9-yl)-3,4-dihydroxytetrahydrofuran-2-yl)methyl)-1H-1,2,3-triazol-4-yl)-1-oxopropan-2-yl)heptanamide salt] |  | 16 to 64 | 22.2 (5.0) % | 22.2 | 16 |  |  | 
8 | C[C@@H](NC(=O)c1ccc(-c2ccccc2)cc1)C(=O)c1cn(C[C@H]2O[C@@H](n3cnc4c(N)ncnc43)[C@H](O)[C@@H]2O)nn1 [Compound 52, N-((R)-1-(1-(((2R,3S,4R,5R)-5-(6-amino-9H-purin-9-yl)-3,4-dihydroxytetrahydrofuran-2-yl)methyl)-1H-1,2,3-triazol-4-yl)-1-oxopropan-2-yl)-[1,1′-biphenyl]-4-carboxamide salt] |  | 8 | 16% and 16.0 (4.2) % | 12.4 |  |  |  | 
9 | CCCCCCOc1ccc(C(=O)N[C@H](C)C(=O)c2cn(C[C@H]3O[C@@H](n4cnc5c(N)ncnc54)[C@H](O)[C@@H]3O)nn2)cc1 [Compound 53, N-((R)-1-(1-(((2R,3S,4R,5R)-5-(6-amino-9H-purin-9-yl)-3,4-dihydroxytetrahydrofuran-2-yl)methyl)-1H-1,2,3-triazol-4-yl)-1-oxopropan-2-yl)-4-(hexyloxy)benzamide salt] |  | 16 to 64 | 12.5 (14.0) % | 16 | 16 |  |  | 
10 | C[C@@H](NC(=O)OCc1ccc([N+](=O)[O-])cc1)C(=O)c1cn(C[C@H]2O[C@@H](n3cnc4c(N)ncnc43)[C@H](O)[C@@H]2O)nn1 [Compound 54, 4-nitrobenzyl ((R)-1-(1-(((2R,3S,4R,5R)-5-(6-amino-9H-purin-9-yl)-3,4-dihydroxytetrahydrofuran-2-yl)methyl)-1H-1,2,3-triazol-4-yl)-1-oxopropan-2-yl)carbamate salt] |  | 16 to 64 | 0% | 21.9 | 16 |  |  | 
11 | C[C@@H](O)[C@H]1C(=O)N2C(C(=O)O)=C(SCCN=CN)C[C@H]12 [IPM, imipenem, reference compound] |  |  |  |  |  |  |  | 32
